Counter-ions that a name gives are not always drawn. Like-named read-outs stand apart in the source and are kept apart here. Where only a bound is given, the exact number is not on record here.

One data set relates to MOLM-13 cells. Briefly: Cell growth and viability / proliferation, MOLM-13 cells. The data set is classed as cell-based, human.
In data set [1] the test system is H3K79 methylation in MOLM-13 cells. Nature of the data set: Cellular H3K79 methylation analysis (histone immunoblot) in MOLM-13 cells. Type of data set: cell-based, human. On the technique in general: In western blotting, separated proteins are transferred to a membrane and probed.
The test system of the next data set is CD14. Briefly: Cell surface expression of differentiation marker CD14 by flow cytometry, MOLM-13 cells. The conditions noted are these: 3 μM. On the technique in general: A flow cytometer gives signals particle by particle.
The subject of another data set is TBP. Nature of the data set: Housekeeping gene TBP transcript levels.
Data set [2] has as its system MLL-rearranged human leukemia cell lines. Briefly: Proliferation IC50 in panel of MLL-rearranged leukemia cell lines. The data set is classed as cell-based. The conditions noted are these: six MLL-rearranged cell lines (FIG. 6).
Data set [3] relates to MV4-11 cells. Nature of the data set: Cell cycle and apoptosis by flow cytometry (DNA content, Annexin V), MV4-11 cells. The conditions noted are these: 3 μM, after day four over the next six days.
Another data set concerns the target DOT1L(1-416) (Homo sapiens (Human), UniProt Q8TEK3). Briefly: Determination of IC50, DOT1L biochemical assay.
In another data set the test system is H3K79me2 in Jurkat cells. Nature of the data set: Cellular H3K79me2 immunoblot in Jurkat cells. The conditions noted are these: Jurkat (non-MLL-rearranged).
Data set [4] deals with non-MLL rearranged human leukemia cell lines. Nature of the data set: Proliferation IC50 in panel of non-MLL-rearranged leukemia cell lines. The conditions noted are these: six non-MLL rearranged cell lines (FIG. 6), read-out: IC50 for inhibition of proliferation. The data set is classed as cell-based.
In a further data set the test system is Jurkat cells. Nature of the data set: Proliferation assay, Jurkat cells. Type of data set: cell-based, human. As to conditions: 3 μM, several days.
Another data set deals with MEIS1. Nature of the data set: MEIS1 transcript levels by quantitative real-time PCR. The conditions noted are these: for IC50: read-out: decrease of MEIS1 transcript, IC50. (Real-time PCR tracks product formation cycle by cycle.)
For data set [5], the system named is MV4-11 cells. Briefly: Proliferation assay, MV4-11 cells. Type of data set: cell-based, human. As to conditions: 3 μM, several days.
In the next data set the test system is HOXA9. Nature of the data set: HOXA9 transcript levels by quantitative real-time PCR. As to conditions: for IC50: read-out: decrease of HOXA9 transcript, IC50.
The subject of another data set is H3K79me2 in MV4-11 cells. Briefly: Cellular histone methylation immunoblot in MV4-11 cells.
Where [6] appears, read: MV4-11 cells, 3 μM, time course.

DOT1L(1-416), sequence (Q8TEK3 1-416): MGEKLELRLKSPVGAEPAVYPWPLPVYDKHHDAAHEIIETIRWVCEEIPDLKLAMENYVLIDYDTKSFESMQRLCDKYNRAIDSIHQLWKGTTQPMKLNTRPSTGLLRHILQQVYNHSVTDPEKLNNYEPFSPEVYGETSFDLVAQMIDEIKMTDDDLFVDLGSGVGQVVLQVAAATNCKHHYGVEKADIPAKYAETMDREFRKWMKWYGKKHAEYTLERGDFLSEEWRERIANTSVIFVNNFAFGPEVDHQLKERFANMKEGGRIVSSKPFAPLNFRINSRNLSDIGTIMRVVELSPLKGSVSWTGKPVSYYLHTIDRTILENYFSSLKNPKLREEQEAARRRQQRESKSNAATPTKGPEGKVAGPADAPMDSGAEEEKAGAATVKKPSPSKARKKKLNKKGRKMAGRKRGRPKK

With `CN(CCCNC(=O)Nc1ccc(C(C)(C)C)cc1)CC1O[C@@H](n2ccc3c(N)ncnc32)[C@H](O)[C@@H]1O` (stereo partly shown) [Compound 9, hydrochloride], the IC50 in the data set with MOLM-13 cells (MOLM-13 cells, read-out: Proliferation IC50 MOLM-13 cells) was determined as 17300 nM; in data set [1] (MOLM-13 cells, read-out: H3K79 IC50 MOLM-13 cells), 77 nM.
With `CC(C)N(CCCNC(=O)Nc1ccc(C(C)(C)C)cc1)C[C@H]1O[C@@H](n2ccc3c(N)ncnc32)[C@H](O)[C@@H]1O` [Compound 16, 1-(3-((((2R,3S,4R,5R)-5-(4-amino-7H-pyrrolo[2,3-d]pyrimidin-7-yl)-3,4-dihydroxytetrahydrofuran-2-yl)methyl)(isopropyl)amino)propyl)-3-(4-(tert-butyl)phenyl)urea], the “expression of CD14” value in the data set on CD14 is “induced following 12 days”. In the data set on TBP, the “transcript levels of the housekeeping gene TBP” value is reported as “unaffected”. Also, the “IC50 for inhibition of proliferation” value in data set [2] was “nanomolar to low micromolar range”. Moreover, the “number of viable cells” value with MOLM-13 cells (MOLM-13 cells, 3 μM, several days) is “dramatically reduced”; with MV4-11 cells [5] it was “dramatically reduced”. The “global H3K79me2 levels” value was “concentration dependent reduction” in data set [1] (MOLM-13 (MLL-AF9), immunoblot); “concentration dependent reduction” in the data set with H3K79me2 in Jurkat cells; “concentration dependent reduction” with H3K79me2 in MV4-11 cells (MV4-11 (MLL-AF4), immunoblot). Further, the “cell cycle and apoptosis” value in the data set with MV4-11 cells [3] was “increase in sub-G1 and Annexin-positive cells”. Also, the “mode of binding to the enzyme (steady state kinetic analysis)” value at DOT1L(1-416) (versus SAM) is on record as “binds to the enzyme competitively with SAM”. Also, the IC50 in data set [4] is > 10000 nM; in the data set with MEIS1 (MOLM-13 cells) it was ~700 nM; with MEIS1 (MV4-11 cells), ~700 nM; in the data set on HOXA9 (MOLM-13 cells), ~700 nM; with HOXA9 (MV4-11 cells) it was ~700 nM. The growth of cells entry in the data set with Jurkat cells is on record as “unaffected”. Further, the “estimated half-life for MEIS1 inhibition” value in the data set with MEIS1 (3 μM, mRNA over time) was 79.2 h. Further, in the data set on HOXA9 (3 μM, mRNA over time), the “estimated half-life for HOXA9 inhibition” value was 55.2 h. Besides, the “methyl marks affected (panel of methyl-lysine and methyl-arginine specific antibodies)” value in the data set on H3K79me2 in MV4-11 cells (MV4-11 cells) is “only methyl marks affected by compound 16 treatment were H3K79me1 and H3K79me2”. For the same compound, the “H3K79me2 levels within one day of treatment” value in the data set on H3K79me2 in MV4-11 cells (setting [6]) is listed as “modest reduction”. Also, the “time to full depletion of H3K79me2” value with H3K79me2 in MV4-11 cells (setting [6]) is on record as “four to five”.
Turning to `CC(C)N(CCCNC(=O)Nc1ccc(C(C)(C)C)cc1)C[C@H]1O[C@@H](n2ccc3c(N)ncnc32)[C@H](O)[C@@H]1O` [Compound 17, 1-(3-((((2R,3S,4R,5R)-5-(4-amino-7H-pyrrolo[2,3-d]pyrimidin-7-yl)-3,4-dihydroxytetrahydrofuran-2-yl)methyl)(isopropyl)amino)propyl)-3-(4-(tert-butyl)phenyl)urea hydrochloride], the IC50 in the data set with MOLM-13 cells (Homo sapiens, MOLM-13, read-out: Proliferation IC50 MOLM-13 cells) amounted to 3200 nM; in data set [1] (Homo sapiens, MOLM-13, read-out: H3K79 IC50 MOLM-13 cells), 59 nM.
On to `CC(C)N(CCCCc1nc2cc(C(C)(C)C)ccc2[nH]1)C[C@H]1O[C@@H](n2ccc3c(N)ncnc32)[C@H](O)[C@@H]1O` [Compound 18, (2R,3R,4S,5R)-2-(4-amino-7H-pyrrolo[2,3-d]pyrimidin-7-yl)-5-(((4-(5-(tert-butyl)-1H-benzo[d]imidazol-2-yl)butyl)(isopropyl)amino)methyl)tetrahydrofuran-3,4-diol], for which, at DOT1L(1-416), the IC50 was < 10 nM.
As for `CC(C)(C)c1ccc(NC(=O)NCCCNC[C@H]2O[C@@H](n3ccc4c(N)ncnc43)[C@H](O)[C@@H]2O)cc1` [Compound 20], at DOT1L(1-416), the IC50 was < 1000 nM.
On to `CC(=O)N(CCCNC(=O)Nc1ccc(C(C)(C)C)cc1)C[C@H]1O[C@@H](n2ccc3c(N)ncnc32)[C@H](O)[C@@H]1O` [Compound 21], for which the IC50 against DOT1L(1-416) was < 1000 nM.

Values taken from patent publication US8722877B2, “7-deazapurine modulators of histone methyltransferase, and methods of use thereof” (Epizyme, Inc., priority 2010, dated 2014).
